The results in this text go back to patent US6887873B2, “Triazine derivatives and their application as antitelomerase agents” (Aventis Pharma S.A., priority 2001, dated 2005).

SMILES strings stand for the structures.

Test [1] has as its system human telomerease (HL60 cell extract). Kind of test: Antitelomerease activity: extension of oligonucleotide TS followed by PCR amplification, with HL60 extract. Type of test: biochemical. The note with it: read-out: TRAP IC50. On the procedure: The antitelomerease biological activity is determined by the following experimental protocol:
The leukaemia line HL60 is obtained from ATCC (American Type Culture Collection, Rockville, USA). The cells are cultured in suspension in RPMI 1640 medium containing L-glutamine at 2 mM, penicillin 200 U/ml, streptomycin 200 μg/ml, gentamycin 50 μg/ml and supplemented with 10% heat-inactivated foetal calf serum.
An aliquot of 10^5 cells is centrifuged at 3000×G and the supernatant discarded. The cell pellet is resuspended by several successive pipettings in 200 μl of lysis buffer containing 0.5% CHAPS, 10 mM Tris-HCl, pH 7.5, 1 mM MgCl2, 1 mM EGTA, 5 mM β-mercaptoethanol, 0.1 mM PMSF and 10% glycerol and is stored in ice for 30 minutes. The lysate is centrifuged at 160,000×G for 20 minutes at 4° C. and 160 μl of supernatant are recovered. The proteins in the extract are assayed by the Bradford method. The extract is stored at −80° C.
The inhibition of the telomerease activity is determined by a protocol for extension of the oligonucleotide TS (^5′AATCGTTCGAGCAGAGTT^3′), in the presence of a cellular extract enriched in telomerease activity and compounds which are added at various concentrations (10, 1, 0.1 and 0.01 μM). The extension reaction is followed by a PCR amplification of the extension products with the aid of the oligonucleotides TS and CXext (^5′[…]^3′).
The reaction medium is prepared based on the following composition:
The oligonucleotides are obtained from Eurogentec (Belgium) and are stored at −20° C. at a stock concentration of 1 mg/ml in distilled water.
The reaction samples are assembled in 0.2 ml PCR tubes and one drop of paraffin oil is deposited on each of the reactions of the experiment before closing the tubes.
The reaction samples are then incubated in a Cetus 4800-type PCR apparatus under the following temperature conditions: • 15 minutes at 30° C., • 1 minute at 90° C., • followed by 30 cycles of, • 30 seconds at 94° C., • 30 seconds at 50° C., • and 1 minute 30 seconds at 72° C., • followed by a final cycle of 2 minutes at 72° C.
For each of the samples, an aliquot of 10 μl is pipetted under the oil layer and mixed with 5 μl of a loading buffer containing:
The samples are then analysed by electrophoresis on 12% acrylamide gel in a 1×TBE buffer for 1 hour at a voltage of 200 volts, with the aid of a Novex electrophoresis system.
The acrylamide gels are then dried on a sheet of Whatmann 3 mm paper at 80° C. for 1 hour.
The analysis and the quantification of the reaction products are carried out with the aid of an InstantImager apparatus (Pacard).
For each compound concentration tested, the results are expressed as percentage inhibition of the reaction and calculated from the untreated enzymatic control and from the enzyme-free sample (blank) according to the following formula: (compound value−blank value/enzymatic control value−blank value)×100.
The concentration of compound inducing a 50% inhibition of the telomerease reaction (IC50) is determined with the aid of a semilogarithmic graphical representation of the inhibition values obtained as a function of each of the compound concentrations tested.
A compound is considered to be active as an antitelomerease agent when the quantity inhibiting 50% of the telomerease reaction is in particular less than 5 μM.

In test [2] the test system is G-quadruplex of oligonucleotide GGGTTAGGGTTAGGGTTAGGG (3.5 repeats of the human telomereic motif). Kind of test: G-quadruplex stabilizing activity, fluorescence Tm (FAM+DABCYL oligonucleotide). Format: binding. The source says:
The G-quadruplex stabilizing activity may be determined by a method using the formation of a complex with fluorescein of which the experimental protocol is described below.
All the nucleotides, modified or otherwise, were synthesized by Eurogentec SA, Seraing, Belgium. The oligonucleotide FAM+DABCYL carries the catalogue reference OL-0371-0802. It has the sequence: […] corresponding to 3.5 repeats of the human telomereic motif (strand rich in G). The fluorescein is attached to the 5′ end, the DABCYL to the 3′ end, by the chemical arms described by Eurogentec. The concentration of the samples is checked by spectrophotometry, recording the absorbance spectrum between 220 and 700 nm and using the molar extinction coefficient provided by the supplier.
All the experiments were carried out in a 10 mM sodium cacodylate buffer pH 7.6 containing 0.1 M lithium chloride (or sodium chloride). The absence of fluorescent contamination in the buffer was checked beforehand. The fluorescent oligonucleotide is added at the final concentration of 0.2 μM.
All the measurements of fluorescence were carried out on a Spex Fluorolog DM1B apparatus, using an excitation line width of 1.8 nm and an emission line width of 4.5 nm. The samples are placed in a microquartz cuvette of 0.2×1 cm. The temperature of the sample is controlled by an external water bath. The oligonucleotide alone was analysed at 20, 30, 40, 50, 60, 70 and 80° C. The emission spectra are recorded using an excitation wavelength of 470 nm. The excitation spectra are recorded using either 515 nm or 588 nm as emission wavelength. The spectra are corrected for the response of the instrument by reference curves. A high extinction (80-90%) of the fluorescence of fluorescein at room temperature is observed, in agreement with an intramolecular folding of the oligonucleotide at 20° C. in the form of a G-quadruplex, which induces juxtaposition of its 5′ and 3′ ends which are respectively linked to fluorescein and to DABCYL. This juxtaposition causes an already-described phenomenon of extinction of fluorescence which is used for “molecular beacons”.
An oligonucleotide stock solution at the strand concentration of 0.2 μM in 0.1 M LiCl, 10 mM cacodylate buffer, pH 7.6, is prepared beforehand, heated briefly at 90° C. and slowly cooled to 20° C., and then distributed in aliquots of 600 μl in the fluorescence cuvettes. 3 μl of water (for the control) or 3 μl of test product (stock at 200 μM, final concentration 1 μM) are then added and mixed. The samples are then allowed to incubate for at least 1 hour at 20° C. before each measurement. The use of longer incubation times (up to 24 hours) has no influence on the result obtained.
Each experiment allows the measurement of only one sample. The latter is first incubated at an initial temperature of 20° C., heated to 80° C. over 38 minutes, left for 5 minutes at 80° C. and then cooled to 20° C. over 62 minutes. During this time, the fluorescence is measured simultaneously at two emission wavelengths (515 nm and 588 nm) using 470 nm as excitation wavelength. A measurement is carried out every 30 seconds. The temperature of the water bath is recorded in parallel, and the fluorescence profile as a function of the temperature is reconstituted from these values. The fluorescence profiles are then normalized between 20° C. and 80° C., and the temperature for which the intensity of emission at 515 nm is the mean of those at high and low temperature is called Tm. Under these conditions, the Tm of the reference sample without addition of product is 44° C. in a lithium chloride buffer. This temperature is increased to more than 55° C. in a sodium chloride buffer. The addition of a G-quadruplex-stabilizing compound induces an increase in the Tm. This increase is judged to be significant if it is greater than 3°.

`Cc1cc(N)c2cc(Nc3nc(Nc4ccc5nc(C)cc(N)c5c4)nc(N4CCCN(C)CC4)n3)ccc2n1` [Example 42]: in test [1], the IC50 turned out to be 50 nM. Moreover, in test [2], the “G4 delta Tm” value stood at 15.5 °C.

`Cc1cc(N)c2cc(Nc3nc(Nc4ccc5nc(C)cc(N)c5c4)nc(OCc4ccccc4)n3)ccc2n1` [Example 33, 2,4-bis(4-amino-2-methylquinolin-6-yl)amino-6-(phenylmethyl)oxy-[1,3,5]triazine]: the IC50 in test [1] is 400 nM. Also, the “G4 delta Tm” value in test [2] was determined as 10.0 °C.

On to `Cc1cc(N)c2cc(Nc3nc(Nc4ccc5nc(C)cc(N)c5c4)nc(N4CCN(CCO)CC4)n3)ccc2n1` [Example 154], for which the IC50 in test [1] was found to be 200 nM. The “G4 delta Tm” value in test [2] was 19 °C.

`Cc1cc(N)c2cc(Nc3nc(NCCCN(C)C)nc(Nc4ccc5nc(C)cc(N(C)C)c5c4)n3)ccc2n1` [Example 9]: the IC50 in test [1] stood at 100 nM. Moreover, the “G4 delta Tm” value in test [2] is 10.0 °C.

Consider `Cc1cc(N(C)C)c2cc(Nc3nc(Nc4ccc5nc(C)cc(N(C)C)c5c4)nc(N(CCO)CCO)n3)ccc2n1` [Example 161], for which, in test [1], the IC50 was 1900 nM. The “G4 delta Tm” value in test [2] was 12 °C.

`Cc1cc(N)c2cc(Nc3nc(Nc4ccc5nc(C)cc(N)c5c4)nc(Nc4cccc5cn[nH]c45)n3)ccc2n1` [Example 56]: in test [1], the half-inhibitory concentration (IC50) amounted to 350 nM. For the same compound, the “G4 delta Tm” value in test [2] is 2.5 °C.

For `Cc1cc(N)c2cc(Nc3nc(NCCN4CCN(Cc5ccccc5)CC4)nc(Nc4ccc5nc(C)cc(N)c5c4)n3)ccc2n1` [Example 74], in test [1], the IC50 is 140 nM. Also, in test [2], the “G4 delta Tm” value turned out to be 9.5 °C.

In the case of `Cc1cc(N(C)C)c2cc(Nc3nc(Nc4ccc5nc(C)cc(N(C)C)c5c4)nc(N4CCC(O)CC4)n3)ccc2n1` [Example 164], the IC50 in test [1] stood at 1600 nM. Moreover, the “G4 delta Tm” value in test [2] was 12.5 °C.

With `Cc1cc(N(C)C)c2cc(Nc3nc(Nc4ccc5nc(C)cc(N(C)C)c5c4)nc(N4CCN(CCO)CC4)n3)ccc2n1` [Example 163], the IC50 in test [1] worked out at 1200 nM. Further, in test [2], the “G4 delta Tm” value is 13 °C.

Take `Cc1cc(N)c2cc(Nc3nc(NCc4ccc(Cl)cc4)nc(Nc4ccc5nc(C)cc(N)c5c4)n3)ccc2n1` [Example 67]: in test [1], the concentration for half-maximal inhibition (IC50) came to 430 nM. The “G4 delta Tm” value in test [2] came out at 6.5 °C.

On to `Cc1cc(N)c2cc(Nc3nc(Nc4ccc5nc(C)cc(N)c5c4)nc(Nc4cccc5ccc(C)nc45)n3)ccc2n1` [Example 98], for which the IC50 in test [1] worked out at 350 nM. Moreover, the “G4 delta Tm” value in test [2] came to 4 °C.

For `Cc1cc(N)c2cc(Nc3nc(Nc4ccc5nc(C)cc(N)c5c4)nc(Nc4ccc5nc(C)cc(N(C)C)c5c4)n3)ccc2n1` [Example 11, 2,4-bis(4-amino-2-methylquinolin-6-yl)amino-6-(4-dimethylamino-2-methylquinolin-6-yl)amino-[1,3,5]triazine], the IC50 in test [1] was determined as 160 nM. In test [2], the “G4 delta Tm” value was determined as 11.4 °C.

Turning to `Cc1cc(N)c2cc(Nc3nc(Nc4ccc5nc(C)cc(N)c5c4)nc(N4CCN(c5ccncc5)CC4)n3)ccc2n1` [Example 59], the IC50 in test [1] was found to be 190 nM. Besides, in test [2], the “G4 delta Tm” value amounted to 11 °C.

Regarding `Cc1cc(N)c2cc(Nc3nc(Nc4ccc5nc(C)cc(N)c5c4)nc(OCc4ccccn4)n3)ccc2n1` [Example 114], the IC50 in test [1] worked out at 1260 nM. Further, the “G4 delta Tm” value in test [2] came to 13.5 °C.

On to `Cc1cc(N)c2cc(Nc3nc(NCC[N+](C)(C)C)nc(Nc4ccc5nc(C)cc(N)c5c4)n3)ccc2n1` [Example 54], for which, in test [1], the IC50 was 170 nM. In addition, the “G4 delta Tm” value in test [2] turned out to be 16 °C.

As for `Cc1cc(N)c2cc(Nc3nc(Nc4ccc5nc(C)cc(N)c5c4)nc(N4CCN(CCc5ccccc5)CC4)n3)ccc2n1` [Example 57], in test [1], the IC50 stood at 300 nM. Further, the “G4 delta Tm” value in test [2] worked out at 8 °C.

Regarding `Cc1cc(N)c2cc(Nc3nc(NCc4ccccn4)nc(Nc4ccc5nc(C)cc(N)c5c4)n3)ccc2n1` [Example 49], in test [1], the concentration for half-maximal inhibition (IC50) was found to be 1000 nM. In test [2], the “G4 delta Tm” value worked out at 10 °C.

Take `Cc1cc(N)c2cc(Nc3nc(Nc4ccc5nc(C)cc(N)c5c4)nc(N4CCN(CCN5CCCC5)CC4)n3)ccc2n1` [Example 75]: the IC50 in test [1] is 50 nM. In test [2], the “G4 delta Tm” value was 13.5 °C.

As for `Cc1cc(N)c2cc(Nc3nc(Nc4ccc5nc(C)cc(N)c5c4)nc(Oc4ccccn4)n3)ccc2n1` [Example 110], the IC50 in test [1] was found to be 610 nM. Further, in test [2], the “G4 delta Tm” value was 20.5 °C.

On to `Cc1cc(N)c2cc(Nc3nc(NCc4ccccc4)nc(Nc4ccc5nc(C)cc(N)c5c4)n3)ccc2n1` [Example 50], for which the IC50 in test [1] came to 220 nM. Further, the “G4 delta Tm” value in test [2] came to 7 °C.

For `Cc1cc(N)c2cc(Nc3nc(Nc4ccc5nc(C)cc(N)c5c4)nc(N4CCN(CCN(C)C)CC4)n3)ccc2n1` [Example 88], the IC50 in test [1] was 110 nM. Moreover, in test [2], the “G4 delta Tm” value worked out at 6 °C.

Consider `CC(=O)NCCNc1nc(Nc2ccc3nc(C)cc(N)c3c2)nc(Nc2ccc3nc(C)cc(N)c3c2)n1` [Example 35], for which the IC50 in test [1] came out at 500 nM. For the same compound, the “G4 delta Tm” value in test [2] was determined as 11.0 °C.

As for `Cc1cc(N(C)C)c2cc(Nc3nc(Nc4ccc5nc(C)cc(N(C)C)c5c4)nc(N4CCCC(O)C4)n3)ccc2n1` (stereo not drawn) [Example 169], the IC50 in test [1] was found to be 700 nM. Moreover, the “G4 delta Tm” value in test [2] is 16.5 °C.

On to `Cc1cc(N(C)C)c2cc(Nc3nc(Nc4ccc5nc(C)cc(N(C)C)c5c4)nc(NC(C)CO)n3)ccc2n1` (stereo not drawn) [Example 175], for which, in test [1], the IC50 was 3000 nM. In addition, the “G4 delta Tm” value in test [2] was found to be 3 °C.

The term IC50 denotes the midpoint of a concentration-inhibition curve.
